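Compound exposure: 48 hours, 5 concentrations, 96-well plates. TGI: concentration producing complete growth inhibition.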
Assays:
Test in all cases: NCI anticancer screen, dose series, 48 h
[1] = tested on: MDA-N
[2] = tested on: U251 CNS
[3] = tested on: OVCAR-3 ovarian
[4] = tested on: SK-MEL-5 melanoma
[5] = tested on: CAKI-1 renal
[6] = tested on: EKVX NSCLC
[7] = tested on: CCRF-CEM leukemia
[8] = tested on: NCI-H460 lung
[9] = tested on: HS 578T breast
[10] = tested on: LOX IMVI melanoma
[11] = tested on: HOP-92 NSCLC
[12] = tested on: A549 NSCLC
[13] = tested on: MDA-MB-435
[14] = tested on: RPMI-8226 leukemia
[15] = tested on: NCI-H226 lung
[16] = tested on: HOP-62 NSCLC
[17] = tested on: 786-0 renal
[18] = tested on: T-47D breast
[19] = tested on: HCC-2998 colon
[20] = tested on: MCF7 breast
[21] = tested on: SK-MEL-28 melanoma
[22] = tested on: SR leukemia
[23] = tested on: HCT-116 colon
[24] = tested on: UACC-257 melanoma
[25] = tested on: DU-145 prostate
[26] = tested on: MOLT-4 leukemia
[27] = tested on: SNB-75 CNS
[28] = tested on: SNB-19 CNS
[29] = tested on: ACHN renal
[30] = tested on: SK-MEL-2 melanoma
[31] = tested on: NCI-H522 lung
[32] = tested on: K-562 leukemia
[33] = tested on: IGROV1 ovarian
[34] = tested on: HT29 colon
[35] = tested on: OVCAR-8 ovarian
[36] = tested on: SF-539 CNS
[37] = tested on: NCI/ADR-RES ovarian
[38] = tested on: A498 renal
[39] = tested on: OVCAR-5 ovarian
[40] = tested on: OVCAR-4 ovarian
[41] = tested on: NCI-H23 lung
[42] = tested on: SN12C renal
[43] = tested on: PC-3 prostate
[44] = tested on: SK-OV-3 ovarian
[45] = tested on: TK-10 renal
[46] = tested on: HCT-15 colon
[47] = tested on: UACC-62 melanoma
[48] = tested on: M14 melanoma
[49] = tested on: COLO 205 colon
[50] = tested on: KM12 colon
[51] = tested on: MALME-3M melanoma
[52] = tested on: SF-295 CNS
[53] = tested on: RXF 393 renal
[54] = tested on: SF-268 CNS
[55] = tested on: MDA-MB-231 breast
[56] = tested on: BT-549 breast
[57] = tested on: SW-620 colon
[58] = tested on: UO-31 renal
[59] = tested on: HL-60(TB) leukemia

Cc1ccc2c(=O)cc(-c3cc(C)sc3C)[nH]c2n1
TGI [1]: 1920 nM
TGI [2]: > 100 µM
TGI [3]: 58.6 µM
TGI [4]: 16.4 µM
TGI [5]: > 100 µM
TGI [6]: > 100 µM
TGI [7]: > 25.5 µM
TGI [8]: > 100 µM
TGI [9]: 7.15 µM
TGI [10]: > 58.8 µM
TGI [11]: > 100 µM
TGI [12]: > 39.3 µM
TGI [13]: 2860 nM
TGI [14]: > 20.5 µM
TGI [15]: 7.62 µM
TGI [16]: > 100 µM
TGI [17]: > 100 µM
TGI [18]: > 100 µM
TGI [19]: 36.3 µM
TGI [20]: > 100 µM
TGI [21]: > 100 µM
TGI [22]: > 86.3 µM
TGI [23]: > 69 µM
TGI [24]: > 100 µM
TGI [25]: > 94.5 µM
TGI [26]: > 77.6 µM
TGI [27]: > 29.9 µM
TGI [28]: > 100 µM
TGI [29]: > 100 µM
TGI [30]: > 29.6 µM
TGI [31]: > 22.2 µM
TGI [32]: > 100 µM
TGI [33]: > 100 µM
TGI [34]: 32.9 µM
TGI [35]: > 37.3 µM
TGI [36]: 6.25 µM
TGI [37]: 5.29 µM
TGI [38]: > 100 µM
TGI [39]: > 100 µM
TGI [40]: > 100 µM
TGI [41]: > 24 µM
TGI [42]: > 93.4 µM
TGI [43]: > 30.2 µM
TGI [44]: > 82.7 µM
TGI [45]: > 100 µM
TGI [46]: > 100 µM
TGI [47]: > 100 µM
TGI [48]: > 100 µM
TGI [49]: 7.52 µM
TGI [50]: > 100 µM
TGI [51]: > 100 µM
TGI [52]: 7.54 µM
TGI [53]: > 24.4 µM
TGI [54]: > 73.4 µM
TGI [55]: 65.8 µM
TGI [56]: > 100 µM
TGI [57]: 19.4 µM
TGI [58]: > 100 µM
TGI [59]: 6.74 µM

CC(C)=CCC[C@@H](C)C1=C(N)C(O)=C(C)C(=O)C1=O
TGI [1]: > 75000 nM
TGI [2]: > 75 µM
TGI [3]: > 75 µM
TGI [4]: > 75 µM
TGI [5]: > 75 µM
TGI [6]: > 75 µM
TGI [7]: > 70.9 µM
TGI [8]: > 75 µM
TGI [9]: > 75 µM
TGI [10]: > 75 µM
TGI [11]: > 75 µM
TGI [12]: > 75 µM
TGI [13]: > 75000 nM
TGI [14]: > 75 µM
TGI [15]: > 75 µM
TGI [16]: > 75 µM
TGI [17]: > 75 µM
TGI [18]: > 75 µM
TGI [19]: > 75 µM
TGI [20]: > 75 µM
TGI [21]: > 75 µM
TGI [22]: > 75 µM
TGI [23]: > 75 µM
TGI [24]: > 75 µM
TGI [25]: > 75 µM
TGI [26]: > 67.5 µM
TGI [27]: > 75 µM
TGI [28]: > 75 µM
TGI [29]: > 53.4 µM
TGI [30]: > 75 µM
TGI [31]: 50.9 µM
TGI [32]: > 75 µM
TGI [33]: > 75 µM
TGI [34]: > 48 µM
TGI [35]: > 61.2 µM
TGI [36]: > 75 µM
TGI [37]: > 38.8 µM
TGI [38]: > 75 µM
TGI [39]: > 75 µM
TGI [40]: > 75 µM
TGI [41]: > 75 µM
TGI [42]: > 75 µM
TGI [43]: > 75 µM
TGI [44]: > 75 µM
TGI [45]: > 75 µM
TGI [46]: > 75 µM
TGI [47]: > 75 µM
TGI [48]: > 75 µM
TGI [49]: > 67.9 µM
TGI [50]: > 75 µM
TGI [51]: > 75 µM
TGI [52]: > 75 µM
TGI [53]: > 75 µM
TGI [54]: > 75 µM
TGI [55]: > 75 µM
TGI [56]: > 75 µM
TGI [57]: > 75 µM
TGI [58]: > 75 µM
TGI [59]: 39.5 µM
